Experiment [1] has as its target T1, CA-IX (Homo sapiens, UniProt Q16790).
T1 construct: His tag (C); purchased R&D Systems Inc. 2188-CA; host or cells: mouse myeloma cell line NS0
As to the kind of experiment: Binding affinity (Kd) determination for CA-IX inhibitors, DNSA fluorescence competition assay, Scatchard plots. Particulars: Table 3. The method, then:
General. […] The human red blood cells were obtained from Research Blood Components, LLC. All absorbance measurements were performed on a SPECTRA MAX M2 plate reader at 25° C. The LC/MS analyses were performed on an Agilent 1100 series LC/MSD (SL) using a 30×2.1 mm Zorbax C8 column with a Phenomenex C18 pre-column. Compound detection was accomplished by electrospray mass spectroscopy in positive selected ion mode (LC/MS-SIM). The elution solvents were acetonitrile and water, contained 0.05% TFA. Nuclear magnetic resonance (NMR) spectra were obtained on a Bruker AMX 300 MHz spectrometer or a Varian 400. 19F NMR spectra were recorded on a Bruker AMX 282.35 MHz or a Varian 400 spectrometer. The mass spectra were recorded on an Agilent 1100 series LC/MSD with electrospray mass spectroscopic detection. Flash column chromatography was performed on Merck silica gel (40-63 μm) using the solvent system indicated. The radiochemical and chemical purities were analyzed by RP-HPLC.
General Procedure of Binding Affinity (Ka) Determination for CA-IX Inhibitors
The assay was based on the observation that the only fluorescence signal detected at 460 nm upon excitation at 290 nm, an absorption […] for DNSA, was that of the DNSA.CA complex. […] The latter were developed for each test compound using mass balance for calculating the concentration of CA bound to DNSA [DNSA.CA], bound to the non-fluorescent sample [CA.Inh] and free CA [CA] in solution. The Kd values were determined from Scatchard plots using the equation below as described by Whitesides et al. [CA.Inh]/[CA]tot.[Inh]=K11^inh−K11^inh{[CA.Inh]+[CA.DNSA]}/([CA]tot)
The terms [CA.DNSA], [CA.Inh], and free CA were calculated using the mass balance based on the known values for the dissociation constant of CA.DNSA and the total concentration of CA in each reaction.

The target of experiment [2] is T1, CA-IX. The experiment in a line: CA-IX combinatorial library screening, competitive fluorescence-based assay with dansylamide (DNSA). The format is binding. Particulars: Table 1, Libraries 1-3; sample concentrations 100 nM and 1000 nM, DNSA 200 μM; screening at 1 μM. The procedure, abridged: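 Recombinant His-tagged CA-IX (NS0-expressed) in phosphate buffer pH 7.4 with test compound at 100 nM or 1000 nM; competitive displacement started with 200 μM dansylamide (stock concentration). After 1 h at 25 °C, fluorescence read at 460 nm (excitation 290 nm).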

With `CC(C)[C@H](C(=O)NCc1ccco1)n1cc(-c2ccc(S(N)(=O)=O)cc2)nn1` (stereo in doubt) [DHK25], at CA-IX [1], binding was put at a Kd of 5 nM. Moreover, at CA-IX [2], the “In Vitro Binding Assay (Library Screening)” value (“In Vitro Binding Assay” for short) is given as “√ √”.

For `Cc1ccnc(NC(=O)[C@H](Cc2ccccc2)n2cc(-c3ccc(S(N)(=O)=O)cc3)nn2)c1` [DHK7], binding on CA-IX [1] was characterised by a dissociation constant (Kd) of 17 nM. For the same compound, the “In Vitro Binding Assay” value at CA-IX [2] is on record as “√”.

`NS(=O)(=O)c1ccc(-c2cn(Cn3c(=S)sc4ccccc43)nn2)cc1` [DHK19]: on CA-IX [1], binding was put at a Kd of 14 nM. The “In Vitro Binding Assay” value on CA-IX [2] is listed as “√”.

Turning to `NS(=O)(=O)c1ccc(-c2cn(Cn3nnc4ccccc43)nn2)cc1` [DHK29], the Kd on CA-IX [1] was 20 nM. In addition, the “In Vitro Binding Assay” value on CA-IX [2] is given as “√”.

For `COC(=O)[C@H](CSCc1ccccc1)NC(=O)Cn1cc(COc2ccc3nc(S(N)(=O)=O)sc3c2)nn1` [DHK113], binding on CA-IX [1] was characterised by a dissociation constant (Kd) of 10 nM. In addition, the “In Vitro Binding Assay” value on CA-IX [2] is “√ √”.

In turn, `CC(C)C(C(=O)NCc1cc(F)ccc1F)n1cc(COc2ccc3nc(S(N)(=O)=O)sc3c2)nn1` (stereo not shown) [DHK117] displayed a Kd at CA-IX [1] of 14.1 nM. Moreover, the “In Vitro Binding Assay” value at CA-IX [2] is given as “√”.

Regarding `NS(=O)(=O)c1nc2ccc(OCc3cn(Cc4cccc(Br)c4)nn3)cc2s1` [DHK121], binding on CA-IX [1] was characterised by a dissociation constant (Kd) of 25 nM. Moreover, the “In Vitro Binding Assay” value at CA-IX [2] is listed as “√”.

For the compound `Cc1ccc(CNC(=O)[C@H](C(C)C)n2cc(COc3ccc4nc(S(N)(=O)=O)sc4c3)nn2)cc1F` [DHK123], at CA-IX [1], binding was characterised by a dissociation constant (Kd) of 12.5 nM. In addition, the “In Vitro Binding Assay” value at CA-IX [2] was “√”.

`CCOC(=O)c1ccc(Cn2cc(COc3ccc4nc(S(N)(=O)=O)sc4c3)nn2)cc1` [DHK125] showed a Kd at CA-IX [1] of 16.7 nM. Also, the “In Vitro Binding Assay” value on CA-IX [2] is “√”.

At CA-IX [1], `CC(C)[C@@H](C(=O)NCc1ccco1)n1cc(COc2ccc3nc(S(N)(=O)=O)sc3c2)nn1` [DHK127] gave a Kd of 25 nM. At CA-IX [2], the “In Vitro Binding Assay” value was “√”.

For the compound `NS(=O)(=O)c1nc2ccc(OCc3cn(Cn4nnc5ccccc54)nn3)cc2s1` [DHK128], the Kd at CA-IX [1] was 12.5 nM. Besides, the “In Vitro Binding Assay” value at CA-IX [2] is recorded as “√”.

Take `COC(=O)[C@@H](CSCc1cccc(OCCF)c1)NC(=O)[C@H](CCO)n1cc(COc2ccc3nc(S(N)(=O)=O)sc3c2)nn1` [VM2-106, (S)-methyl 3-(3-(2-fluoroethoxy)benzylthio)-2-(S)-4-hydroxy-2-(4-((2-sulfamoylbenzo[d]thiazol-6-yloxy)methyl)-1H-1,2,3-triazol-1-yl)butanamido) propanoate]: on CA-IX [1], the dissociation constant Kd stood at 5 nM.

On CA-IX [1], `COC(=O)[C@H](C[S+]([O-])Cc1cccc(OCCF)c1)NC(=O)Cn1cc(COc2ccc3sc(S(N)(=O)=O)nc3c2)nn1` (stereo partly drawn) [VM2-126, ((2S)-methyl 3-(3-(2-fluoroethoxy)benzylsulfinyl)-2-(2-(4-((2-sulfamoylbenzo[d]thiazol-6-yloxy)methyl)-1H-1,2,3-triazol-1-yl)acetamido) propanoate] showed a Kd of 10 nM.

`N[C@@H](CO)C(=O)NCCOc1cccc(COC[C@H](NC(=O)Cn2cc(COc3ccc4nc(S(N)(=O)=O)sc4c3)nn2)C(=O)O)c1` [VM3-163, (S)-3-(3-(2-((S)-2-amino-3-hydroxypropanamido)ethoxy)benzyloxy)-2-(2-(4-((2-sulfamoylbenzo[d]thiazol-6-yloxy)methyl)-1H-1,2,3-triazol-1-yl)acetamido)propanoic acid] returned a Kd at CA-IX [1] of 10 nM.

Compound `NS(=O)(=O)c1nc2ccc(OCc3cn(CC(=O)N[C@@H](Cc4ccc(OCCO)cc4)C(=O)O)nn3)cc2s1` [VM4009, (S)-3-(4-(2-hydroxyethoxy)phenyl)-2-(2-(4-((2-sulfamoylbenzo[d]thiazol-6-yloxy)methyl)-1H-1,2,3-triazol-1-yl)acetamido)propanoic acid] yielded a Kd at CA-IX [1] of 5 nM.

At CA-IX [1], `CC(C)[C@@H](C(=O)N[C@@H](Cc1ccc(OCCO)cc1)C(=O)O)n1cc(COc2ccc3nc(S(N)(=O)=O)sc3c2)nn1` [VM4021, (S)-3-(4-(2-hydroxyethoxy)phenyl)-2-((S)-3-methyl-2-(4-((2-sulfamoylbenzo[d]thiazol-6-yloxy)methyl)-1H-1,2,3-triazol-1-yl)butanamido)propanoic acid] showed a Kd of 3.3 nM.

In turn, `CC(C)[C@@H](C(=O)N[C@@H](Cc1ccc(OCCF)cc1)C(=O)O)n1cc(COc2ccc3nc(S(N)(=O)=O)sc3c2)nn1` [VM4037a, (S)-3-(4-(2-fluoroethoxy)phenyl)-2-((S)-3-methyl-2-(4-((2-sulfamoylbenzo[d]thiazol-6-yloxy)methyl)-1H-1,2,3-triazol-1-yl)butanamido) propanoic acid] registered a dissociation constant Kd at CA-IX [1] of 1.3 nM.

For the compound `CC(C)[C@H](C(=O)N[C@@H](Cc1ccc(OCCF)cc1)C(=O)O)n1cc(COc2ccc3nc(S(N)(=O)=O)sc3c2)nn1` [VM4037b], the Kd at CA-IX [1] was 5 nM.

Turning to `NS(=O)(=O)c1nc2ccc(OCc3cn(CC(=O)N[C@@H](Cc4ccc(OCC(O)CF)cc4)C(=O)O)nn3)cc2s1` (stereo partly drawn) [VM4041, (S)-3-(4-(3-fluoro-2-hydroxypropoxy)phenyl)-2-(2-(4-((2-sulfamoylbenzo[d]thiazol-6-yloxy)methyl)-1H-1,2,3-triazol-1-yl)acetamido)propanoic acid], the Kd at CA-IX [1] came out at 5 nM.

For `NS(=O)(=O)c1nc2cc(OCc3cn(CC(=O)NCCCOCCOCCOCCCNC(=O)c4ccc(C(=O)O)c(-c5c6ccc(=O)cc-6oc6cc(O)ccc56)c4)nn3)ccc2s1` [WZ01101], at CA-IX [1], the Kd was 14 nM. Compared with the last compound, the Kd is about 2.8-fold higher.

These data come from patent US7829063B2, “Development of molecular imaging probes for carbonic anhydrase-IX using click chemistry” (Siemens Medical Solutions USA, Inc., priority 2007, dated 2010).
